According to patent US11040038B2, “Methods for treating diseases associated with abnormal ACVR1 expression and ACVR1 inhibitors for use in the same” (Sumitomo Dainippon Pharma Oncology, Inc., priority 2018, dated 2021):
Where “and” joins values, the source holds several entries; their conditions need not be identical. Identical values can stand only once.

How the values were obtained:
[1] = Preliminary brain PK study; type: in vivo; settings: mouse, mice, brain tissue
Experimental: In order to be an effective treatment for DIPG, Compound 2 needs to distribute to the brain and more importantly, achieve fairly deep penetration to the pons region of the brain. To assess the general distribution of Compound 2 to the brain, a preliminary brain PK study was conducted. Brain tissue concentrations show very good distribution to the brain (FIG. 4A).

[2] = test system: ALK2/ACVR1 having various mutations; experiment: Activity on ALK2/ACVR1 having various mutations (FIG. 8); type: biochemical
Source text: Biochemical Studies indicate that mutations in the intracellular domain can have activating effects on ACVR1/ALK2 kinase activity. Many of the known mutations enhance the activity of the receptor in response to the receptor ligand.

[3] = Pharmacokinetics and relative bioavailability after a single oral dose (two liquid formulations, powder in capsule); type: in vivo, male Beagle dogs; settings: male Beagle dogs, plasma
Source text: The purpose of the study is to dose two suspension formulations of Compound 2 at two dose levels by gavage to Beagle dogs and to collect blood samples for the determination of plasma concentrations, derivation of pharmacokinetic parameters and to determine the relative bioavailability of the two suspension formulations. The pharmacokinetics of Compound 2 would be evaluated following oral administration in capsules and the relative bioavailability of this dosage form to the oral liquid formulations was determined.
This study involves the dosing of the test item by the oral route over three periods separated by a 7 days washout period as outlined in Table 43, Table 44, and Table 45. The third period of the study outlined in Table 45 is considered to be optional and will only be performed at the Sponsor's request. Prior to the day of dosing, food will be removed from the dogs at 4:00 pm and reintroduced 2 hrs after dosing.
For oral administration of the formulations, the test item was administered via a stomach tube followed by the administration of 10 mL of tap water. For oral administration of capsules, the capsule was placed on the back of the tongue to encourage swallowing followed by administration of 10 mL of tap water. The oral cavity was then be inspected to make sure the capsule was swallowed. The actual volume of dosing formulation administered will be calculated based on the animal's most recently scheduled body weight.
The pharmacokinetic parameters for Compound 2 in solution as Formulation #1 (Table 43) and Formulation #2 (Table 44) along with data for the dosing of Compound 2 powder in capsule (Table 45) are presented in Table 46.

[4] = Table 4, route and dose not given
[5] = Table 5, route and dose not given
[6] = Formulation #1 (Table 43), 2 mg/kg oral, Mean
[7] = Formulation #1 (Table 43), 2 mg/kg oral, individual dog, 2 mg/kg
[8] = Formulation #1 (Table 43), 5 mg/kg oral, Mean
[9] = Formulation #1 (Table 43), 5 mg/kg oral, individual dog, 5 mg/kg
[10] = Formulation #2 (Table 44), 2 mg/kg oral, Mean
[11] = Formulation #2 (Table 44), 2 mg/kg oral, individual dog, 2 mg/kg
[12] = Formulation #2 (Table 44), 5 mg/kg oral, Mean
[13] = Formulation #2 (Table 44), 5 mg/kg oral, individual dog, 5 mg/kg
[14] = Powder in Capsule (Table 45), 2 mg/kg oral, Mean
[15] = Powder in Capsule (Table 45), 2 mg/kg oral, individual dog, 2 mg/kg
[16] = Powder in Capsule (Table 45), 5 mg/kg oral, Mean
[17] = Powder in Capsule (Table 45), 5 mg/kg oral, individual dog, 5 mg/kg

`COc1cc(Nc2nccc(Nc3cccnc3-c3ccccn3)n2)ccc1N1CCN(C)CC1` [Compound 2, N^4-(2,2′-bipyridin-3-yl)-N^2-(3-methoxy-4-(4-methylpiperazin-1-yl)phenyl)pyrimidine-2,4-diamine] showed an AUC(0-t) [1, 4] of 750 ng·h/mL, a Cmax [1, 4] of 691 ng/g and a Tmax [1, 4] of 0.083 h. For the same molecule, the half-life [1, 4] was 1.23 h, the AUC(0-inf) ([1]; Table 4, route and dose not printed (FIG. 4A: intravenous and oral)) was 758 ng·h/mL and the AUC(0-t) [1, 5] was 10300 ng·h/mL. It also gave a Cmax [1, 5] of 2740 ng/g, a Tmax [1, 5] of 1.8 h and a half-life [1, 5] of 2.57 h. The AUC(0-inf) ([1]; Table 5, route and dose not printed (FIG. 4A: intravenous and oral)) was 10300 ng·h/mL, the “Inhibition of ALK2 receptors having various mutations” value [2] was “effective in inhibiting ALK2 receptors having various mutations” and the Kel [3, 6] was 0.124 h⁻¹. For the same molecule, the MRTobs [3, 6] was 9.32 h, the AUC0-TLast [3, 7] was 87 ng·h/mL and 77 ng·h/mL and the “AUC0-∞” value [3, 7] was 92 ng·h/mL and 82 ng·h/mL. For the same molecule, the CL/F [3, 7] was 367 mL/min/kg and 400 mL/min/kg, the Cmax [3, 7] was 8.69 ng/mL and 7.27 ng/mL and the Kel [3, 7] was 0.116 h⁻¹ and 0.133 h⁻¹ and 0.124 h⁻¹. The MRTobs [3, 7] was 10.05 h and 8.64 h and 9.26 h, the t1/2 [3, 7] was 5.2 h and the Kel [3, 8] was 0.138 h⁻¹. The MRTobs [3, 8] was 8.71 h, the AUC0-TLast [3, 9] was 190 ng·h/mL and 453 ng·h/mL and 198 ng·h/mL and the “AUC0-∞” value [3, 9] was 204 ng·h/mL and 475 ng·h/mL. The CL/F [3, 9] was 417 mL/min/kg and 183 mL/min/kg, the Cmax [3, 9] was 15.51 ng/mL and 46.76 ng/mL and 21.15 ng/mL and the Kel [3, 9] was 0.115 h⁻¹ and 0.136 h⁻¹ and 0.162 h⁻¹. The MRTobs [3, 9] was 9.72 h and 8.6 h and 7.82 h, the t1/2 [3, 9] was 5.1 h and 4.3 h and the Kel [3, 10] was 0.150 h⁻¹. The MRTobs [3, 10] was 8.49 h, the AUC0-TLast [3, 11] was 115 ng·h/mL and 44 ng·h/mL and the “AUC0-∞” value [3, 11] was 148 ng·h/mL and 120 ng·h/mL and 47 ng·h/mL. For the same molecule, the CL/F [3, 11] was 217 mL/min/kg and 283 mL/min/kg and 717 mL/min/kg, the Cmax [3, 11] was 19.72 ng/mL and 10.43 ng/mL and 4.59 ng/mL and the Kel [3, 11] was 0.179 h⁻¹ and 0.145 h⁻¹ and 0.125 h⁻¹. For the same molecule, the MRTobs [3, 11] was 7.31 h and 9.2 h and 8.96 h, the t1/2 [3, 11] was 4.8 h and 5.5 h and the Kel [3, 12] was 0.142 h⁻¹. For the same molecule, the MRTobs [3, 12] was 8.28 h, the AUC0-TLast [3, 13] was 151 ng·h/mL and 342 ng·h/mL and 141 ng·h/mL and the “AUC0-∞” value [3, 13] was 159 ng·h/mL and 357 ng·h/mL and 146 ng·h/mL. The CL/F [3, 13] was 517 mL/min/kg and 233 mL/min/kg and 567 mL/min/kg, the Cmax [3, 13] was 17.70 ng/mL and 34.08 ng/mL and 14.91 ng/mL and the Kel [3, 13] was 0.129 h⁻¹ and 0.142 h⁻¹ and 0.153 h⁻¹. The MRTobs [3, 13] was 8.44 h and 8.7 h and 7.71 h, the t1/2 [3, 13] was 4.9 h and 4.5 h and the Kel [3, 14] was 0.304 h⁻¹. For the same molecule, the MRTobs [3, 14] was 5.23 h, the AUC0-TLast [3, 15] was 53 ng·h/mL and 49 ng·h/mL and 112 ng·h/mL and the “AUC0-∞” value [3, 15] was 58 ng·h/mL and 122 ng·h/mL. For the same molecule, the CL/F [3, 15] was 583 mL/min/kg and 267 mL/min/kg, the Cmax [3, 15] was 9.55 ng/mL and 13.83 ng/mL and 21.31 ng/mL and the Kel [3, 15] was 0.293 h⁻¹ and 0.314 h⁻¹. For the same molecule, the MRTobs [3, 15] was 5.15 h and 5.30 h, the t1/2 [3, 15] was 2.2 h and the Kel [3, 16] was 0.233 h⁻¹. For the same molecule, the MRTobs [3, 16] was 6.44 h, the AUC0-TLast [3, 17] was 139 ng·h/mL and 107 ng·h/mL and the “AUC0-∞” value [3, 17] was 142 ng·h/mL and 122 ng·h/mL. For the same molecule, the CL/F [3, 17] was 583 mL/min/kg and 683 mL/min/kg, the Cmax [3, 17] was 43.79 ng/mL and 14.66 ng/mL and 18.21 ng/mL and the Kel [3, 17] was 0.255 h⁻¹ and 0.183 h⁻¹ and 0.261 h⁻¹. The MRTobs [3, 17] was 5.79 h and 7.62 h and 5.92 h and the t1/2 [3, 17] was 3.8 h.
